{
  "source": "patent US20260053777A1",
  "about": "“USE OF NRF2 ACTIVATORS FOR THE TREATMENT OF CEREBRAL SMALL VESSEL DISEASE” (INSTITUT NATIONAL DE LA SANTÉ ET DE LA RECHERCHE MÉDICALE, priority 2022, published 2026)",
  "key": {"[1]": {"tested_on": "Human brain microvascular endothelial cells (HBMEC)", "assay": "Cellrox Green detection of oxidative stress in HBMEC treated with control or TRIM47 siRNA and Luperox", "assay_type": "cell-based", "details": "Luperox, pre-treatment with tBHQ", "experimental": "Human brain microvascular endothelial cells (HBMEC) were treated with control or TRIM47 siRNA and with/without Luperox (inducer of oxidative stress) and incubated with Cellrox Green dye (detection of oxidative stress)."}, "[2]": {"tested_on": "Nrf2 and its target genes", "assay": "qPCR screening of Nrf2 and its target genes on brain endothelial cells isolated from adult mice with/without tBHQ diet", "assay_type": "in vivo"}, "Trim47 −/− adult mice": {"tested_on": "Trim47 −/− adult mice", "assay": "Water maze behavioural test on adult mice with/without a diet with tBHQ", "assay_type": "in vivo", "experimental": "FIG. 4. TRIM47 is essential to brain physiology by promoting the NRF2 antioxidant protective system. […] B. RNA-sequencing was performed on HBMEC treated with control or TRIM47 siRNA. C. Assessment of blood brain barrier (BBB) permeability was done on Trim47 +/+ and Trim47 −/− adult mice. Mann-Whitney test. D. Representative image by immunofluorescence of GFAP expression (activated astrocytes) in brain sections from Trim47 +/+ and Trim47 −/− adult mice. E. Water maze behavioural test performed on adult mice with/without a diet with tBHQ. Two-way ANOVA with repeated measures. […] Latency to reach platform is shown for the 4 training days (FIG. 4E)."}, "NRF2": {"tested_on": "NRF2", "assay": "Rescue of the effect of TRIM47 knockdown by activation of NRF2 at the protein level (FIG. 3)", "assay_type": "cell-based, human", "details": "tBHQ stabilizing NRF2 protein", "description": "FIG. 3. […] Methods. TRIM47 interacting effectors were searched by proximity labeling assay (BioID) in human brain EC. TRIM47 knockdown in EC allowed to explore TRIM47 role in functional assays, and to identify transcriptional response by RNA-sequencing."}, "[3]": {"details": "Trim47 KO mice, brain EC, +tBHQ diet (1% W/W, 1 month), mean of n = 5"}, "[4]": {"details": "Trim47 WT mice, brain EC, +tBHQ diet (1% W/W, 1 month), mean of n = 5"}},
  "data": [
    {"smiles": "CC(C)(C)c1cc(O)ccc1O", "note": "[tBHQ, tert-butylhydroquinone]", "values": [
      {"measurement": "Induction of oxidative stress (Cellrox Green dye)", "setting": "[1]", "result": "reversed induction of oxidative stress"},
      {"measurement": "Relative gene expression fold change (normalized to Pecam1): Cdh5 (BBB integrity)", "setting": "[2]; [3]", "result": 0.967},
      {"measurement": "Relative gene expression fold change (normalized to Pecam1): Cldn5 (BBB integrity)", "setting": "[2]; [3]", "result": 0.877},
      {"measurement": "Relative gene expression fold change (normalized to Pecam1): Cldn11 (BBB integrity)", "setting": "[2]; [3]", "result": 1.020},
      {"measurement": "Relative gene expression fold change (normalized to Pecam1): Gclm (Nrf2 pathway)", "setting": "[2]; [3]", "result": 1.009},
      {"measurement": "Relative gene expression fold change (normalized to Pecam1): Hmox1 (Nrf2 pathway)", "setting": "[2]; [3]", "result": 1.095},
      {"measurement": "Relative gene expression fold change (normalized to Pecam1): Keap1 (Nrf2 pathway)", "setting": "[2]; [3]", "result": 0.730},
      {"measurement": "Relative gene expression fold change (normalized to Pecam1): Me1 (Nrf2 pathway)", "setting": "[2]; [3]", "result": 1.148},
      {"measurement": "Relative gene expression fold change (normalized to Pecam1): Nfe2l2 (Nrf2 pathway)", "setting": "[2]; [3]", "result": 1.040},
      {"measurement": "Relative gene expression fold change (normalized to Pecam1): Nqo1 (Nrf2 pathway)", "setting": "[2]; [3]", "result": 1.084},
      {"measurement": "Relative gene expression fold change (normalized to Pecam1): Ocln (BBB integrity)", "setting": "[2]; [3]", "result": 0.895},
      {"measurement": "Relative gene expression fold change (normalized to Pecam1): Slc7a11 (Nrf2 pathway)", "setting": "[2]; [3]", "result": 1.145},
      {"measurement": "Relative gene expression fold change (normalized to Pecam1): Cdh5 (BBB integrity)", "setting": "[2]; [4]", "result": 1.013},
      {"measurement": "Relative gene expression fold change (normalized to Pecam1): Cldn5 (BBB integrity)", "setting": "[2]; [4]", "result": 1.071},
      {"measurement": "Relative gene expression fold change (normalized to Pecam1): Cldn11 (BBB integrity)", "setting": "[2]; [4]", "result": 1.016},
      {"measurement": "Relative gene expression fold change (normalized to Pecam1): Gclm (Nrf2 pathway)", "setting": "[2]; [4]", "result": 0.999},
      {"measurement": "Relative gene expression fold change (normalized to Pecam1): Hmox1 (Nrf2 pathway)", "setting": "[2]; [4]", "result": 1.033},
      {"measurement": "Relative gene expression fold change (normalized to Pecam1): Keap1 (Nrf2 pathway)", "setting": "[2]; [4]", "result": 1.014},
      {"measurement": "Relative gene expression fold change (normalized to Pecam1): Me1 (Nrf2 pathway)", "setting": "[2]; [4]", "result": 1.033},
      {"measurement": "Relative gene expression fold change (normalized to Pecam1): Nfe2l2 (Nrf2 pathway)", "setting": "[2]; [4]", "result": 1.007},
      {"measurement": "Relative gene expression fold change (normalized to Pecam1): Nqo1 (Nrf2 pathway)", "setting": "[2]; [4]", "result": 1.033},
      {"measurement": "Relative gene expression fold change (normalized to Pecam1): Ocln (BBB integrity)", "setting": "[2]; [4]", "result": 1.025},
      {"measurement": "Relative gene expression fold change (normalized to Pecam1): Slc7a11 (Nrf2 pathway)", "setting": "[2]; [4]", "result": 1.030},
      {"measurement": "Relative gene expression fold change (normalized to Pecam1): Trim47", "setting": "[2]; [4]", "result": 1.066},
      {"measurement": "Impairment of the Nrf2 pathway in Trim47 −/− mice (qPCR, brain endothelial cells)", "setting": "[2]; Trim47 −/− adult mice, 1-month diet with tBHQ (1% W/W)", "result": "prevented"},
      {"measurement": "Cognitive impairment in water maze (latency to reach platform, 4 training days)", "setting": "Trim47 −/− adult mice", "result": "prevent cognitive impairment"},
      {"measurement": "Effect of TRIM47 knockdown (FIG. 3)", "setting": "NRF2", "result": "partly rescues the effect of TRIM47 knockdown"}
    ]}
  ]
}
